Measurements reported in patent US20230192700A1, “PYRAZOLOPYRAZINES ACTING ON CANCERS VIA INHIBITION OF CDK12” (Bayer Aktiengesellschaft, priority 2020, published 2023).

Assays:
[1] = biological target: T1, CDK12/CyclinK (Homo sapiens, UniProt Q9NYV4); assay: CDK12/CycK high ATP kinase assay (TR-FRET); type: biochemical; conditions: 2 mM ATP (high ATP); median; read-out: CDK12/CyclinK, 2 mM ATP (high ATP), IC50 - [mol/l] (median)
T1 construct: His-CDK12 (aa Q696-S1082); made in house; host or cells: Hi-5 insect cells (baculovirus co-infection with CycK and yeast CAK1)
Excerpt: 2.2 CDK12/CycK high ATP Kinase Assay
In the context of the present invention, the term “IC50 CDK12 hATP” refers to the ICso values obtained according to the assay described in this section (2.2) herein below, i.e. the IC50 values for the inhibition of CDK12 at high ATP.
CDK12/CycK -inhibitory activity of compounds of the present invention at 2 millimol/L adenosine-tri-phosphate (ATP) was quantified employing the TR-FRET (TR-FRET=Time Resolved Fluorescence Energy Transfer) based CDK12/CycK activity inhibition assay as described in the following paragraphs.
A complex of human recombinant CDK12 and human recombinant CycK (both N-terminally His-tagged, expression and purification as described above) was used as enzyme. As substrate for the kinase reaction biotinylated peptide biotin-Ahx-KFELLPTPPLSPSRRSGL (C-terminus in amid form) was used which can be purchased e.g. form the company Biosyntan (Berlin-Buch, Germany).
For the assay 50 nanoL of a 100 fold concentrated solution of the test compound in DMSO was pipetted into either a black low volume 384 well microtiter plate or a black 1536 well microtiter plate (both Greiner Bio-One, Frickenhausen, Germany), 2 microL of a solution of CDK12/CycK in aqueous assay buffer [25 millimol/L HEPES pH 7.5, 20 millimol/L MgCl2, 5 millimol/L β-glycerophosphate, 2 millimol/L EGTA, 1.0 millimol/L dithiothreitol, 0.01% (v/v) Nonidet-P40 (Sigma), 0.01% (w/v) bovine serum albumin] were added and the mixture was incubated for 15 min at 22° C. to allow pre-binding of the test compounds to the enzyme before the start of the kinase reaction. Then the kinase reaction was started by the addition of 3 microL of a solution ATP (3.33 millimol/L=>final conc. in the 5 microL assay volume is 2 millimol/L) and substrate (1.67 micromol/L=>final conc. in the 5 microL assay volume is 1 micromol/L) in assay buffer and the resulting mixture was incubated for a reaction time of 60 min at 22° C. The concentration of CDK12/CycK was adjusted depending of the activity of the enzyme lot and was chosen appropriate to have the assay in the linear range, typical concentrations were about 0.75 nanomol/L. The reaction was stopped by the addition of 3 microL of a solution of TR-FRET detection reagents (125 nanomol/L streptavidine-XL665 [Cisbio Bioassays, Codolet, France] and 0.67 nanomol/L anti-Phospho-c-Myc (Ser 62) (E1J4K)-antibody from Cell Signalling [#13748] and 2 nanomol/L LANCE EU-W1024 labeled anti-rabbit IgG antibody [Perkin-Elmer, product no. 0083]) in an aqueous EDTA-solution (133 millimol/L EDTA, 0.27% (w/v) bovine serum albumin in 66.7 millimol/L HEPES pH 7.5).
The resulting mixture was incubated 1 h at 22° C. to allow the formation of complex between the phosphorylated biotinylated peptide and the detection reagents. Subsequently the amount of phosphorylated substrate was evaluated by measurement of the resonance energy transfer from the Eu-chelate to the streptavidine-XL. Therefore, the fluorescence emissions at 620 nm and 665 nm after excitation at 350 nm was measured in a TR-FRET reader, e.g. a Pherastar FS (BMG Labtechnologies, Offenburg, Germany) or a Viewlux (Perkin-Elmer). The ratio of the emissions at 665 nm and at […] was taken as the measure for the amount of phosphorylated substrate. The data were normalised (enzyme reaction without inhibitor=0% inhibition, all other assay components but no enzyme=100% inhibition).

[2] = biological target: T2, CYCLIN K (Homo sapiens, UniProt O75909); assay: CYCLIN K nuclear protein level: immunofluorescence/high content analysis in CAL-120 cells; type: cell-based; conditions: 24 h, nuclear CCNK staining intensity, median, read-out: CYCLIN K degradation IF, DC50- [mol/l] (median)
T2 construct: endogenous in cells; host or cells: CAL-120 human breast cancer cells (DSMZ ACC 459)
Method: 7. CYCLIN K Nuclear Protein Level: Immunofluorescence/High Content Analysis
In the context of the present invention, the term “DC50 Cyclin K” refers to the DC50 values obtained according to the assay described in this section (7) herein below, i.e. the DC50 values for the degradation of Cyclin K.
(§1) CAL-120 human breast cancer cells (DSMZ ACC 459) are seeded in 1536-well microtiter plates (800 cells per well) containing 50 nanoL of compounds in Dose-Response. Control wells received DMSO or Reference Example 1. Plates are then incubated for 24 h at 37° C. in an humidified incubator and fixed with 4% PFA for 10 min. Then immunofluorescence (IF) against CYCLIN K (ThermoFisher Scientific CCNK Antibody # PA5-85020, rabbit, 1:200 dilution) is performed using standard IF protocols. Cells are then stained with Hoechst 33342 (Life Technologies, H-1399, 0.1 microg/mL) and imaged on an automated confocal microscopy system (e.g. Perkin Elmer Opera Phenix). Nuclear and cytoplasmic intensity as well as the nuclear/cytoplasmic intensity ratio is determined by automated image analysis using custom generated scripts (MetaXpress). Data is then transferred to Genedata Screener software, normalized to DMSO and control and DC50 values (degrading concentration to achieve 50% reduction of nuclear CCNK staining intensity relative to controls) are reported.

[3] = biological target: T3, CDK12 (Homo sapiens, UniProt Q9NYV4); assay: CDK12 nuclear protein level: immunofluorescence/high content analysis in CAL-120 cells; type: cell-based
T3 construct: endogenous in cells; host or cells: CAL-120 human breast cancer cells (DSMZ ACC 459)
Method: 6. CDK12 Nuclear Protein Level: Immunofluorescence/High Content Analysis
In the context of the present invention, the term “DC50 CDK12” refers to the DC50 values obtained according to the assay described in this section (6) herein below, i.e. the DC50 values for the degradation of CDK12.:
as §1, with “CDK12 (CellSignalling CDK12” for “CYCLIN K (ThermoFisher Scientific CCNK”, “#11973,” for “# PA5-85020,”, “1:100” for “1:200”, “CDK12” for “CCNK”

T3 sequence (Q9NYV4 whole entry): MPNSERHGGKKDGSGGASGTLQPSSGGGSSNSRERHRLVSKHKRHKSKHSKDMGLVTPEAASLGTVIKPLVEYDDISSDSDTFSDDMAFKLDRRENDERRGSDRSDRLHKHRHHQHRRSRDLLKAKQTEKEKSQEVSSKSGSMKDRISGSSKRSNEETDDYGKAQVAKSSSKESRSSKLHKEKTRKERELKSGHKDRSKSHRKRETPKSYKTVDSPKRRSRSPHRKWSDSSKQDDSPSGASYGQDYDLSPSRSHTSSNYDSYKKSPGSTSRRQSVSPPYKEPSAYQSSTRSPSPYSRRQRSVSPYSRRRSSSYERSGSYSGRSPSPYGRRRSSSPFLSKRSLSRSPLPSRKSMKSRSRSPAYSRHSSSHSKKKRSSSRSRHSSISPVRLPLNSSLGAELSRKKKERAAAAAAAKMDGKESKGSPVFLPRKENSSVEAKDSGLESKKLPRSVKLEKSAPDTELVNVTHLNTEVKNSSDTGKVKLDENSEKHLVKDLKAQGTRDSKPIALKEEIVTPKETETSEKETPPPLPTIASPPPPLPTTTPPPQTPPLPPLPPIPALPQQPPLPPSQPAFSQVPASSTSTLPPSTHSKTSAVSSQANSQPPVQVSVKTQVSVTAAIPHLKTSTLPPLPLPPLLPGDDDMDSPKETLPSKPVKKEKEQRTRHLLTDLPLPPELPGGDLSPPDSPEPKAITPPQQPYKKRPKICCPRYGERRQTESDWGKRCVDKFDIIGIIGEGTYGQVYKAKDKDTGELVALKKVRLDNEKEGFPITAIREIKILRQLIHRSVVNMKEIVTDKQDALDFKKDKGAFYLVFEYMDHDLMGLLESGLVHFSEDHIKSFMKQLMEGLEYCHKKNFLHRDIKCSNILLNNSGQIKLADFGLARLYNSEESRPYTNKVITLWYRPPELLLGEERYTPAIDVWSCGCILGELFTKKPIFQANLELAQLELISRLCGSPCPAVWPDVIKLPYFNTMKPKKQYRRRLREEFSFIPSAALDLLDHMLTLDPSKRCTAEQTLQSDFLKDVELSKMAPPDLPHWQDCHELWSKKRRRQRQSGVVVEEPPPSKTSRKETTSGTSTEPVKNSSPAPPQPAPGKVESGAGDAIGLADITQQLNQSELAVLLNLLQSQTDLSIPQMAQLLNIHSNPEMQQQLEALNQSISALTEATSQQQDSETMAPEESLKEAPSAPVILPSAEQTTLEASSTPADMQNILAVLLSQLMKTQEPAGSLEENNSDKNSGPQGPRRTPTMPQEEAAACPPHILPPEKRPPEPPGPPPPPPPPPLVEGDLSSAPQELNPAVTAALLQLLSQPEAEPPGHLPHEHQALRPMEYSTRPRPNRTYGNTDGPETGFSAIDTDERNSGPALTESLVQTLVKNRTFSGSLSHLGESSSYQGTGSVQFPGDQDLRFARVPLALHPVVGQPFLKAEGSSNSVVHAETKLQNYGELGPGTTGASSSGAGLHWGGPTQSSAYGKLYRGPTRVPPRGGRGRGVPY
T3 sequence (O75909 whole entry partner): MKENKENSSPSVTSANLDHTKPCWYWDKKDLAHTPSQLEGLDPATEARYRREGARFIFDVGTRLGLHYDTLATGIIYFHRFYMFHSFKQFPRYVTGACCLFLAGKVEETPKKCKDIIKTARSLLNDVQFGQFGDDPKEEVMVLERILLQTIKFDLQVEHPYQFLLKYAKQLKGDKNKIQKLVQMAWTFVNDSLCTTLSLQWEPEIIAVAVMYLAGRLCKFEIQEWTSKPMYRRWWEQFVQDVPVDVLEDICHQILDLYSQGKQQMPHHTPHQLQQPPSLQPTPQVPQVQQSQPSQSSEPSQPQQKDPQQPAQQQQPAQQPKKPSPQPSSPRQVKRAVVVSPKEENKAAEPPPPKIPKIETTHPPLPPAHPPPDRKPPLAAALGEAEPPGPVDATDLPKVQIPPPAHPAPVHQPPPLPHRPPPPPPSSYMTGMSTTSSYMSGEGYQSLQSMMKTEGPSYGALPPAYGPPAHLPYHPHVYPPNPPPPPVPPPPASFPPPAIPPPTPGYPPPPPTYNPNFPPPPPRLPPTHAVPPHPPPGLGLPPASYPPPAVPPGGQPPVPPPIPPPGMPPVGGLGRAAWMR
T1 sequence (Q9NYV4 with tags, fused parts or gaps): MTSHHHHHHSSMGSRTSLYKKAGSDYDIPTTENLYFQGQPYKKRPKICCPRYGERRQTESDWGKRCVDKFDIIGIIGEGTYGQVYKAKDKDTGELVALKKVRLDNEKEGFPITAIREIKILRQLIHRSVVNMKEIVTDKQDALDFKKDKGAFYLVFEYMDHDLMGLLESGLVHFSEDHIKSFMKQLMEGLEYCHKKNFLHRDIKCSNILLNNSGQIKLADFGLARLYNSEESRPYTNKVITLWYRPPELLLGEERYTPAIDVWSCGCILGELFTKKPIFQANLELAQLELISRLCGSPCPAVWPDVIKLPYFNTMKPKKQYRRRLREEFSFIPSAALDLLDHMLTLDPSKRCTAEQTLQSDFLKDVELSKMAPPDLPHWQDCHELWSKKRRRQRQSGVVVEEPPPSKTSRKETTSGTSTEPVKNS
T1 sequence (O75909 with tags, fused parts or gaps partner limits assumed): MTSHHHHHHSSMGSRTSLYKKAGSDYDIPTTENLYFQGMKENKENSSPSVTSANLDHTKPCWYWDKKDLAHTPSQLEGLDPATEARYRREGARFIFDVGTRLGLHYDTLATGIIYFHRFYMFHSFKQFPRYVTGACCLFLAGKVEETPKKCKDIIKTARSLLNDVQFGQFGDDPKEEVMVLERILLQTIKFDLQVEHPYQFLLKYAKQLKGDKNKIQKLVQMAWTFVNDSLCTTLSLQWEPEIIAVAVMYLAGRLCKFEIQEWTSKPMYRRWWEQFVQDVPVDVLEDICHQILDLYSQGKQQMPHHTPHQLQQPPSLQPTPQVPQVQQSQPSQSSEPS
T2 sequence (O75909 whole entry): as the sequence (O75909 whole entry partner) above
T2 sequence (Q9NYV4 whole entry partner): as the sequence (Q9NYV4 whole entry) above

IC50 [1]: > 20000 nM
DC50 [2]: 3.46 nM
DC50 ([3]; CAL-120 cells, 24 h, nuclear CDK12 staining intensity, median, read-out: CDK12 degradation IF DC50 - [mol/l] (median)): 83.4 nM
(IC50 CDK12 high ATP) to (Degradation DC50 CDK12) ratio ([3]; ratio of IC50 CDK12 hATP (2 mM ATP) to DC50 CDK12 (IF, CAL-120)): >239
Structure (SMILES): CN1CCC(n2nc(NCc3nc4c(OC(F)(F)F)cccc4[nH]3)c3ncc(C4CC4)nc32)CC1 [Example 5, 6-cyclopropyl-1-(1-methylpiperidin-4-yl)-N-{[4-(trifluoromethoxy)-1H-benzimidazol-2-yl]methyl}-1H-pyrazolo[3,4-b]pyrazin-3-amine]
